From PMC6471386, “Cloning, Expression, and Characterization of a Psychrophilic Glucose 6-Phosphate Dehydrogenase from Sphingomonas sp. PAMC 26621” (International Journal of Molecular Sciences, 2019)

Molecular target: T1, SpG6PD1 (Sphingomonas sp. PAMC 26621, UniProt Z9Q3C2ML64)
T1 construct: cloning primer appears to add Gly after Met1 (ATGGGGCCAATC); 56 kDa on SDS-PAGE; tag removal not mentioned
T1 sequence (Z9Q3C2ML64 1-488): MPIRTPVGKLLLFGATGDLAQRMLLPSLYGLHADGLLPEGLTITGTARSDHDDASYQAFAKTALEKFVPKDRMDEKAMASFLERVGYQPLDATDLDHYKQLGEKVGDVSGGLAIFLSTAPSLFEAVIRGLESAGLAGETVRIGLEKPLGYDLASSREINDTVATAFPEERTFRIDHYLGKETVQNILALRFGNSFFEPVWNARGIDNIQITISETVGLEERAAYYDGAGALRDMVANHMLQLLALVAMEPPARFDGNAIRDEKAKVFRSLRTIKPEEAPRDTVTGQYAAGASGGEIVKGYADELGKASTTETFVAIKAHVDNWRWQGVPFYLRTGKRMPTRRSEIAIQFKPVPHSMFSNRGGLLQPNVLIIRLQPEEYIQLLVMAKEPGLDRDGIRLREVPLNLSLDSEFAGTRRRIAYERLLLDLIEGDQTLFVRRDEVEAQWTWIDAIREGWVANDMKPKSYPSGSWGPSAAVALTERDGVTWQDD
Test: NAD(P)H formation at […] nm, Lineweaver-Burk
Type: biochemical
Conditions: NADP+ as co-substrate (assay mixture 100 µM); G6P varied 500-2000 µM; 50 mM Tris-HCl pH 8.0, 25 mM NaCl, 0.1 mM EDTA, 5% glycerol; 30 °C

Km: 145 ± 2 µM
Structure (SMILES): O=P(O)(O)OC[C@H]1OC(O)[C@H](O)[C@@H](O)[C@@H]1O (stereo partly shown) [glucose 6-phosphate]
